The values below come from US20240246946A1, “MODULATORS OF TREX1” (Constellation Pharmaceuticals, Inc., priority 2021, published 2024).

One assay deals with T1, hTREX1 (Homo sapiens, UniProt Q9NSU2).
T1 construct: host or cells: HCT116 dual cells
T1 sequence (Q9NSU2 1-314): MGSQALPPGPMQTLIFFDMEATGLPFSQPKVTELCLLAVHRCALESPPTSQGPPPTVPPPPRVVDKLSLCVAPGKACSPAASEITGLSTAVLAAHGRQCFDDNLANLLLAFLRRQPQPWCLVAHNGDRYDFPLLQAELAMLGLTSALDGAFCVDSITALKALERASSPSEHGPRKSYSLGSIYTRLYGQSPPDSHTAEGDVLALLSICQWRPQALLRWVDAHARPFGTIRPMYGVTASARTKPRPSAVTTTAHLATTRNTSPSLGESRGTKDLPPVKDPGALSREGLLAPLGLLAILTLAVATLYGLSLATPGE
Put plainly: hTREX1 HCT116 Cell Assay (HCT116 dual cells, Lucia luciferase reporter of Type I interferon induction). Format: cell-based. Particulars: TREX1i 4 h before pBR322/BstNI transfection, read after 48 h. In outline:
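HCT116 dual cells carrying an ISRE-type STAT1/STAT2-driven secreted Lucia luciferase reporter were pretreated with TREX1 inhibitor for 4 h (≤0.1% DMSO), then transfected with pBR322/BstNI DNA (100 ng/well, Lipofectamine LTX). Luciferase in medium read after 48 h at 37 °C.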
A general note: In a reporter assay the amount or activity of a reporter protein is the signal.

For the next assay, the target named is T2, full length mouse TREX1 (Mus musculus, UniProt Q91XB0).
T2 construct: N-terminally His-Tev tagged full length mouse TREX1; made in house; host or cells: E. coli
T2 sequence (Q91XB0 1-314): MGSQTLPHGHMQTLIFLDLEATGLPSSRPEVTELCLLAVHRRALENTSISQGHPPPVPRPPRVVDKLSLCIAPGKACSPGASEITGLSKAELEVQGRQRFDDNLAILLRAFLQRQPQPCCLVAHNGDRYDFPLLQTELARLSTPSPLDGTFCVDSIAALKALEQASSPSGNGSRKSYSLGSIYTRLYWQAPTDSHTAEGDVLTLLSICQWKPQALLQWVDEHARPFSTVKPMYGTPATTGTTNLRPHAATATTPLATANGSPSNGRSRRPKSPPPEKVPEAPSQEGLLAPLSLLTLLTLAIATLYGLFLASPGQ
Put plainly: mTREX1 Biochemical Assay (fluorescence, dsDNA substrate degradation). Particulars: biochemical, read-out: mTREX1 IC50. In a few lines:
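Reaction run 18 h at 25° C. with 60 nM TEX615/quencher-labelled dsDNA and 6 pM mouse TREX1 in Tris buffer (pH 7.4, 5 mM MgCl2, 1.0% DMSO), enzyme having sat 4 h with compound across 10 concentrations. EDTA quench; substrate degradation measured as fluorescence increase.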

Some results are limits rather than exact numbers.

With `Cc1nn(C)cc1C(c1cc(F)ccc1C#N)C(C)c1nc(C(=O)Nc2cnoc2)c(O)c(=O)n1C` (single isomer, unassigned) [Example 57 D1E2], the IC50 on hTREX1 is below 0.01 µM; at full length mouse TREX1, 0.001 to 0.01 µM.
The corresponding values for `Cc1cncc(C(c2ccccc2C#N)C(C)c2nc(C(=O)Nc3cnoc3)c(O)c(=O)n2C)n1` (single isomer, unassigned) [Example 53 D1E2] are below 0.01 µM and 0.001 to 0.01 µM.
For the compound `Cc1cc(C(c2cc(F)ccc2C#N)C(C)c2nc(C(=O)Nc3cnoc3)c(O)c(=O)n2C)n(C)n1` (single isomer, unassigned) [Example 111 D1E2], the IC50 against hTREX1 fell in the range of 0.01 to 0.1 µM; on full length mouse TREX1, 0.001 to 0.01 µM.
The corresponding values for `Cc1cnc(C(c2cc(F)ccc2C#N)C(C)c2nc(C(=O)Nc3cnoc3)c(O)c(=O)n2C)cn1` (single isomer, unassigned) [Example 115 D1E2] are below 0.01 µM and 0.001 to 0.01 µM.
The corresponding values for `Cc1ncc(C(c2ccccc2C#N)C(C)c2nc(C(=O)Nc3cnoc3)c(O)c(=O)n2C)nc1C` (single isomer, unassigned) [Example 81 D1E2] are below 0.01 µM and 0.001 to 0.01 µM.
The corresponding values for `CC(c1nc(C(=O)Nc2cnoc2)c(O)c(=O)n1C)C(c1cnn(C(C)C)c1)c1ccccc1C#N` (single isomer, unassigned) [Example 105 D1E2] are below 0.01 µM and 0.001 to 0.01 µM.
As to `CC(c1nc(C(=O)Nc2cnoc2)c(O)c(=O)n1C)C(c1cnn(C)c1)c1ccccc1Cl` (single isomer, unassigned) [Example 77 D1E1], the figures for the IC50 against hTREX1 and on full length mouse TREX1 were 0.01 to 0.1 µM and 0.001 to 0.01 µM, respectively.
The corresponding values for `C[C@H](c1nc(C(=O)Nc2cnoc2)c(O)c(=O)n1C)[C@@H](c1cc(F)ccc1C#N)c1cn(C)nc1C#N` [Example 59 D1E2] are below 0.01 µM and below 0.001 µM.
The corresponding values for `CCn1c(C(C)C(c2cnn(C)c2)c2ccccc2C#N)nc(C(=O)Nc2cnoc2)c(O)c1=O` (single isomer, unassigned) [Example 149 D1E2] are 0.01 to 0.1 µM and 0.001 to 0.01 µM.
The corresponding values for `CC(c1nc(C(=O)Nc2cnoc2)c(O)c(=O)n1C)C(c1cnn(CC(F)(F)F)c1)c1ccccc1C#N` (single isomer, unassigned) [Example 22 D1E1] are below 0.01 µM and 0.001 to 0.01 µM.
As to `CC(c1nc(C(=O)Nc2cnoc2)c(O)c(=O)n1C)C(c1cnn(C(F)F)c1)c1ccccc1C#N` (single isomer, unassigned) [Example 38 D1E1], the IC50 against hTREX1 was below 0.01 µM; on full length mouse TREX1 it was below 0.001 µM.
With `Cc1nn(C)c(C)c1C(c1ccccc1C#N)C(C)c1nc(C(=O)Nc2cnoc2)c(O)c(=O)n1C` (single isomer, unassigned) [Example 78 D1E1], the figures for the 50% inhibitory concentration (IC50) against hTREX1 and at full length mouse TREX1 were below 0.01 µM and 0.001 to 0.01 µM, respectively.
The corresponding values for `CC(c1nc(C(=O)Nc2cnoc2)c(O)c(=O)n1C)C(c1cnn(C)c1)c1ccccc1C#N` (single isomer, unassigned) [Example 2 D1E1] are below 0.01 µM and 0.001 to 0.01 µM.
Turning to `CC(c1nc(C(=O)Nc2cnoc2)c(O)c(=O)n1C)C(c1cnn(CC2CC2)c1)c1ccccc1C#N` (single isomer, unassigned) [Example 23 D1E2], the concentration for half-maximal inhibition (IC50) on hTREX1 lay within 0.01 to 0.1 µM; at full length mouse TREX1 it was 0.001 to 0.01 µM.
In the case of `CC(c1nc(C(=O)Nc2cnoc2)c(O)c(=O)n1C)C(c1ccccc1C#N)c1cn(C)nc1C#N` (single isomer, unassigned) [Example 10 D1E1], the IC50 was below 0.01 µM at hTREX1 and below 0.001 µM at full length mouse TREX1.
Consider `CC(c1nc(C(=O)Nc2cnoc2)c(O)c(=O)n1C)C(c1cnn(C)c1)c1cc(F)ccc1C#N` (single isomer, unassigned) [Example 14 D1E2], for which the IC50 is below 0.01 µM against hTREX1 and 0.001 to 0.01 µM on full length mouse TREX1.
The corresponding values for `Cc1ncc(C(c2ccccc2Cl)C(C)c2nc(C(=O)Nc3cnoc3)c(O)c(=O)n2C)nc1C` (single isomer, unassigned) [Example 125 D1E2] are below 0.01 µM and 0.001 to 0.01 µM.
Turning to `CC(c1nc(C(=O)Nc2cnoc2)c(O)c(=O)n1C)C(c1ccccc1C#N)c1cn(C)nc1F` (single isomer, unassigned) [Example 91 D1E1], the IC50 against hTREX1 was below 0.01 µM; at full length mouse TREX1 it was below 0.001 µM.
The corresponding values for `Cc1nc(C)c(C(c2ccccc2C#N)C(C)c2nc(C(=O)Nc3cnoc3)c(O)c(=O)n2C)nc1C` (single isomer, unassigned) [Example 122 D1E1] are below 0.01 µM and below 0.001 µM.
The corresponding values for `CCn1cc(C(c2ccc(F)cc2C#N)C(C)c2nc(C(=O)Nc3cnoc3)c(O)c(=O)n2C)cn1` (single isomer, unassigned) [Example 16 D1E1] are below 0.01 µM and below 0.001 µM.
The corresponding values for `Cc1ncc(C(c2cc(F)ccc2C#N)C(C)c2nc(C(=O)Nc3cnoc3)c(O)c(=O)n2C)nc1C` (single isomer, unassigned) [Example 124 D1E2] are 0.01 to 0.1 µM and 0.001 to 0.01 µM.
In the case of `CC(c1nc(C(=O)Nc2cnoc2)c(O)c(=O)n1C)C(c1cnn(C)c1)c1cc(Cl)ccc1C#N` (single isomer, unassigned) [Example 26 D1E2], the IC50 against hTREX1 fell in the range of 0.01 to 0.1 µM; on full length mouse TREX1 it was 0.001 to 0.01 µM.
Turning to `CCn1cc(C(c2cc(F)ccc2C#N)C(C)c2nc(C(=O)Nc3cnoc3)c(O)c(=O)n2C)cn1` (single isomer, unassigned) [Example 17 D1E2], the IC50 is below 0.01 µM against hTREX1 and below 0.001 µM at full length mouse TREX1.
As for `CCn1cc(C(c2ccccc2C#N)C(C)c2nc(C(=O)Nc3cnoc3)c(O)c(=O)n2C)cn1` (single isomer, unassigned) [Example 13 D1E1], the IC50 is below 0.01 µM on hTREX1 and below 0.001 µM on full length mouse TREX1.

In general, IC50 refers to the concentration that inhibits the measured activity by half.
